Common to all, as to format: cell-based
Assay [1] deals with Collectotrichum graminicola (Cg). In words: In vitro pathogen growth inhibition assay, Cg. The following applies: 48 h. In a few lines: (§1)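 Spores in 17% V8 liquid medium, or 1.5 mm Rs mycelial plugs in ¼ PDB, incubated with compound; final concentration checked by OD600 for precipitation. OD readings at 24 and 48 h, blank-subtracted, plus visual ratings; value is concentration giving ≥90% growth inhibition.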

Assay [2] deals with Fusarium virguliforme (Fv). In words: In vitro pathogen growth inhibition assay, Fv. In a few lines: (§2)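 Spores of Dm, Fv and Pc were diluted in 17% V8 liquid medium; Rs used 1.5 mm mycelial plugs in ¼ PDB. Compounds from 2.5 mg/ml DMSO stocks were combined with inoculum, growth was read by OD600 at 24 and 48 h with blank subtraction, and the reported value is the concentration giving ≥90% inhibition.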

The test system of another assay is Rhizoctonia solani (Rs). As to the kind of experiment: In vitro pathogen growth inhibition assay, Rs (mycelial plugs). The following applies: Rhizoctonia solani, 48 h, mycelial plugs. In a few lines: as §2
A further assay concerns Botrtyis cinerea (Bc). As to the kind of experiment: In vitro pathogen growth inhibition assay, Bc. To be noted: 48 h. In a few lines: as §1
Assay [3] has as its system Fusarium moniliforme (Fm). As to the kind of experiment: In vitro pathogen growth inhibition assay, Fm. The following applies: Fusarium verticillioides. In a few lines: as §1
A further assay concerns Septoria tritici (St). As to the kind of experiment: In vitro pathogen growth inhibition assay, St. To be noted: Zymoseptoria tritici, 48 h. In a few lines: as §1
The test system of assay [4] is Phytophthora capsici (Pc). As to the kind of experiment: In vitro pathogen growth inhibition assay, Pc. The following applies: 48 h. In a few lines:
as §2

In another assay the test system is Diplodia maydis (Dm). As to the kind of experiment: In vitro pathogen growth inhibition assay, Dm. The following applies: Stenocarpella maydis, 48 h. In a few lines:
as §2

The mark [5] stands for this setting: ≥90% inhibition, 48 hours vs 2% DMSO control, read-out: Compound Concentration (ppm) sufficient for ≥90% inhibition of growth, Cg.
[6] abbreviates: ≥90% inhibition, 48 hours vs 2% DMSO control, read-out: Compound Concentration (ppm) sufficient for ≥90% inhibition of growth, Fv.
[7] abbreviates: ≥90% inhibition, 48 hours vs 2% DMSO control, read-out: Compound Concentration (ppm) sufficient for ≥90% inhibition of growth, Rs.
Setting [8] is: ≥90% inhibition, 48 hours vs 2% DMSO control, read-out: Compound Concentration (ppm) sufficient for ≥90% inhibition of growth, Bc.
The mark [9] stands for this setting: ≥90% inhibition, 48 hours vs 2% DMSO control, read-out: Compound Concentration (ppm) sufficient for ≥90% inhibition of growth, Fm.
The mark [10] stands for this setting: ≥90% inhibition, 48 hours vs 2% DMSO control, read-out: Compound Concentration (ppm) sufficient for ≥90% inhibition of growth, St.
The mark [11] stands for this setting: ≥90% inhibition, 48 hours vs 2% DMSO control, read-out: Compound Concentration (ppm) sufficient for ≥90% inhibition of growth, Pc.
[12] abbreviates: ≥90% inhibition, 48 hours vs 2% DMSO control, read-out: Compound Concentration (ppm) sufficient for ≥90% inhibition of growth, Dm.
The mark [13] stands for this setting: ≥90% growth inhibition, 48 hours, vs 2% DMSO control, read-out: Compound Concentration (ppm) sufficient for ≥90% inhibition of Cg.
Where [14] appears, read: ≥90% growth inhibition, 48 hours, vs 2% DMSO control, read-out: Compound Concentration (ppm) sufficient for ≥90% inhibition of Fv.
The mark [15] stands for this setting: ≥90% growth inhibition, 48 hours, vs 2% DMSO control, read-out: Compound Concentration (ppm) sufficient for ≥90% inhibition of Rs.
Where [16] appears, read: ≥90% growth inhibition, 48 hours, vs 2% DMSO control, read-out: Compound Concentration (ppm) sufficient for ≥90% inhibition of Bc.
[17] abbreviates: ≥90% growth inhibition, 48 hours, vs 2% DMSO control, read-out: Compound Concentration (ppm) sufficient for ≥90% inhibition of Fm.
[18] abbreviates: ≥90% growth inhibition, 48 hours, vs 2% DMSO control, read-out: Compound Concentration (ppm) sufficient for ≥90% inhibition of St.
Where [19] appears, read: ≥90% growth inhibition, 48 hours, vs 2% DMSO control, read-out: Compound Concentration (ppm) sufficient for ≥90% inhibition of Pc.
[20] abbreviates: ≥90% growth inhibition, 48 hours, vs 2% DMSO control, read-out: Compound Concentration (ppm) sufficient for ≥90% inhibition of Dm.

Converted amounts (≈) assume the structure as drawn. Read-outs that look alike come from different tables or passages of the source. Bounds are passed on as bounds.

For `COc1ccccc1[C@H](Cn1c(=O)n(C(C)(C)C(=O)NC(C)C)c(=O)c2c(C)c(-n3cccn3)sc21)OC1CCOCC1` [Compound I-157], the IC90 is ≥ 10 mg/L in assay [1] (setting [5]); ≥ 10 mg/L in assay [2] (setting [6]); 50 mg/L (≈ 82 µM) with Rhizoctonia solani (Rs) (setting [7]); 10 mg/L (≈ 16.4 µM) with Botrtyis cinerea (Bc) (setting [8]); 2 mg/L (≈ 3.28 µM) in assay [3] (setting [9]); ≥ 50 mg/L in the assay on Septoria tritici (St) (setting [10]). For the same compound, the IC90 was > 50 mg/L in assay [4] (setting [11]) and 10 mg/L (≈ 16.4 µM) with Diplodia maydis (Dm) (setting [12]).
Regarding `COc1ccc(F)cc1[C@H](Cn1c(=O)n(C(C)(C)C(=O)O)c(=O)c2c(C)c(-n3nccn3)sc21)OC1CCC(=O)CC1` [Compound I-158], the IC90 in assay [1] (setting [5]) is > 50 mg/L; in assay [2] (setting [6]), > 50 mg/L; in the assay on Rhizoctonia solani (Rs) (setting [7]), 10 mg/L (≈ 16.7 µM); with Botrtyis cinerea (Bc) (setting [8]) it was 10 mg/L (≈ 16.7 µM); in assay [3] (setting [9]), 2 mg/L (≈ 3.34 µM); in the assay with Septoria tritici (St) (setting [10]), > 50 mg/L. Besides, the IC90 (in assay [4] (setting [11]); in the assay with Diplodia maydis (Dm) (setting [12])) was 50 mg/L (≈ 83.4 µM) in each case.
Take `COc1ccc(F)cc1[C@H](Cn1c(=O)n(C(C)(C)C(=O)N2CCCC2)c(=O)c2c(C)c(-n3cccn3)sc21)OCCO` [Compound I-159]: the IC90 in assay [1] (setting [5]) is ≥ 10 mg/L; in assay [2] (setting [6]) it was 2 mg/L (≈ 3.34 µM); with Rhizoctonia solani (Rs) (setting [7]), ≥ 10 mg/L; in the assay with Botrtyis cinerea (Bc) (setting [8]), 10 mg/L (≈ 16.7 µM); in assay [3] (setting [9]), 2 mg/L (≈ 3.34 µM); with Septoria tritici (St) (setting [10]) it was > 50 mg/L. In addition, the IC90 was > 50 mg/L in assay [4] (setting [11]) and ≥ 50 mg/L with Diplodia maydis (Dm) (setting [12]).
In the case of `COc1ccc(F)cc1[C@H](Cn1c(=O)n(C(C)(C)C(=O)NCC#N)c(=O)c2c(C)c(-n3nccn3)sc21)OC(C)C` [Compound I-160], the IC90 in assay [1] (setting [5]) is ≥ 10 mg/L; in assay [2] (setting [6]), 2 mg/L (≈ 3.43 µM); in the assay on Rhizoctonia solani (Rs) (setting [7]), ≥ 50 mg/L; with Botrtyis cinerea (Bc) (setting [8]) it was 2 mg/L (≈ 3.43 µM); in assay [3] (setting [9]) it was 2 mg/L (≈ 3.43 µM); in the assay with Septoria tritici (St) (setting [10]), > 50 mg/L. Besides, the IC90 in assay [4] (setting [11]) was > 50 mg/L; in the assay on Diplodia maydis (Dm) (setting [12]), 10 mg/L (≈ 17.1 µM).
`COc1ccc(F)cc1[C@H](Cn1c(=O)n(C(C)(C)C(=O)N2CCCC2)c(=O)c2c(C)c(-n3cccn3)sc21)OC[C@H](C)O` [Compound I-161]: the IC90 in assay [1] (setting [5]) is 10 mg/L (≈ 16.3 µM); in assay [2] (setting [6]), 10 mg/L (≈ 16.3 µM); with Rhizoctonia solani (Rs) (setting [7]) it was ≥ 2 mg/L; with Botrtyis cinerea (Bc) (setting [8]), 10 mg/L (≈ 16.3 µM); in assay [3] (setting [9]), 2 mg/L (≈ 3.26 µM); with Septoria tritici (St) (setting [10]) it was > 50 mg/L. The IC90 in assay [4] (setting [11]) is > 50 mg/L; with Diplodia maydis (Dm) (setting [12]) it was 50 mg/L (≈ 81.5 µM).
For `COc1ccc(F)cc1[C@H](Cn1c(=O)n(C(C)(C)C(=O)N2CC=CC2)c(=O)c2c(C)c(-n3cccn3)sc21)OC1CCOCC1` [Compound I-162], the IC90 is 2 mg/L (≈ 3.14 µM) in assay [1] (setting [5]); 10 mg/L (≈ 15.7 µM) in assay [2] (setting [6]); 2 mg/L (≈ 3.14 µM) in the assay on Rhizoctonia solani (Rs) (setting [7]); 10 mg/L (≈ 15.7 µM) with Botrtyis cinerea (Bc) (setting [8]); 2 mg/L (≈ 3.14 µM) in assay [3] (setting [9]); > 50 mg/L in the assay on Septoria tritici (St) (setting [10]). Moreover, the results for the IC90 (in assay [4] (setting [11]); in the assay with Diplodia maydis (Dm) (setting [12])) were > 50 mg/L and 10 mg/L (≈ 15.7 µM), respectively.
Regarding `COCCO[C@@H](Cn1c(=O)n(C(C)(C)C(=O)NC(C)C)c(=O)c2c(C)c(-n3cccn3)sc21)c1cc(F)ccc1OC` [Compound I-163], the IC90 in assay [1] (setting [13]) is 50 mg/L (≈ 83.1 µM); in assay [2] (setting [14]), 2 mg/L (≈ 3.32 µM); in the assay on Rhizoctonia solani (Rs) (setting [15]) it was 10 mg/L (≈ 16.6 µM); in the assay with Botrtyis cinerea (Bc) (setting [16]) it was 10 mg/L (≈ 16.6 µM); in assay [3] (setting [17]), 2 mg/L (≈ 3.32 µM); in the assay on Septoria tritici (St) (setting [18]), > 50 mg/L. Also, the IC90 in assay [4] (setting [19]) is > 50 mg/L; in the assay on Diplodia maydis (Dm) (setting [20]), ≥ 10 mg/L.
For the compound `COCCO[C@@H](Cn1c(=O)n(C(C)(C)C(=O)N2CCCC2)c(=O)c2c(C)c(-n3nccn3)sc21)c1cc(F)ccc1OC` [Compound I-164], the IC90 was 10 mg/L (≈ 16.3 µM) in assay [1] (setting [13]); 2 mg/L (≈ 3.25 µM) in assay [2] (setting [14]); 50 mg/L (≈ 81.3 µM) with Rhizoctonia solani (Rs) (setting [15]); 50 mg/L (≈ 81.3 µM) in the assay on Botrtyis cinerea (Bc) (setting [16]); 2 mg/L (≈ 3.25 µM) in assay [3] (setting [17]); > 50 mg/L with Septoria tritici (St) (setting [18]). The IC90 was > 50 mg/L in assay [4] (setting [19]) and 10 mg/L (≈ 16.3 µM) in the assay with Diplodia maydis (Dm) (setting [20]).
In the case of `COc1ccc(F)cc1[C@H](Cn1c(=O)n(C(C)(C)C(N)=O)c(=O)c2c(C)c(-n3nccn3)sc21)OCC(C)C` [Compound I-165], the IC90 in assay [1] (setting [13]) is 2 mg/L (≈ 3.58 µM); in assay [2] (setting [14]), 2 mg/L (≈ 3.58 µM); in the assay with Rhizoctonia solani (Rs) (setting [15]) it was 2 mg/L (≈ 3.58 µM); in the assay with Botrtyis cinerea (Bc) (setting [16]), 2 mg/L (≈ 3.58 µM); in assay [3] (setting [17]), ≥ 0.08 mg/L; with Septoria tritici (St) (setting [18]), > 50 mg/L. Moreover, the IC90 in assay [4] (setting [19]) is > 50 mg/L; in the assay with Diplodia maydis (Dm) (setting [20]), 2 mg/L (≈ 3.58 µM).

The values are drawn from patent US10941157B2, “Pesticidal compositions and uses thereof” (Gilead Apollo, LLC, priority 2015, dated 2021).
